# “Also recorded” adds a separate entry of the source. Like-named read-outs stand apart in the source and are kept apart here. Peptide text beside a SMILES is read from it.
# Tests used:
# PfSpdS [1] = biological target: T1, PfSpdS (Plasmodium falciparum, UniProt Q8II73); experiment: biochemical; type: biochemical; details: for fold difference in IC50 between compound 8 and compound 9: PfSpdS; for inhibition at 100 µM: read-out: % Inhibition (at 100 μM); for pseudo-substrate for PfSpdS: unpublished results of the authors
# Procedure: A 29 amino acid N-terminus deletion mutant of PfSpdS cloned into pTRCHisB (Invitrogen) was expressed in E. coli BLR (DE3), purified and assayed as described by Haider et al. [18]. […] Stock solutions of the inhibitors were prepared in dddH2O. For the 100 μM assays, 1 μg purified PfSpdS, 50 μM RS-dcAdoMet, 100 nCi [2,3-^3H] putrescine hydrochloride (60 Ci/mmol; American Radiolabelled Chemicals, Inc, Minnesota, USA) and 50 μM unlabelled putrescine dihydrochloride (Sigma) were used. […] All inhibition assays were performed in triplicate.
# [2] = test system: mammalian spermine synthase; parameters: method as in Shirahata et al. [22]; details: ref Shirahata et al. [22], cited from earlier work
# mammalian SpdS [3] = details: cited from earlier work; for IC50: Mammalian, read-out: Enzyme inhibition, IC50
# PfSpdS [4] = biological target: T1, PfSpdS; details: cited from earlier work; for IC50: P. falciparum, read-out: Enzyme inhibition, IC50
# mammalian SpdS [5] = experiment: Mammalian spermidine synthase enzyme inhibition; type: biochemical
# [6] = biological target: the molecule itself; experiment: crystal structure; hanging drop vapour diffusion, 293 K; 25% PEG3350, 0.1 M MES pH 5.6, 0.1 M (NH4)2SO4; protein pre-incubated with 2.5 mM compound 8 and MTA; space group C121, three molecules in the asymmetric unit; interface analysed with PISA
# [7] = 100 μM compound, PfSpdS activity inhibited compared to untreated enzyme, mean ± SEM, 100 µM
# [8] = ref Lakanen et al. [21], Pegg et al. [38]
# T1 sequence (Q8II73 entry or part of it): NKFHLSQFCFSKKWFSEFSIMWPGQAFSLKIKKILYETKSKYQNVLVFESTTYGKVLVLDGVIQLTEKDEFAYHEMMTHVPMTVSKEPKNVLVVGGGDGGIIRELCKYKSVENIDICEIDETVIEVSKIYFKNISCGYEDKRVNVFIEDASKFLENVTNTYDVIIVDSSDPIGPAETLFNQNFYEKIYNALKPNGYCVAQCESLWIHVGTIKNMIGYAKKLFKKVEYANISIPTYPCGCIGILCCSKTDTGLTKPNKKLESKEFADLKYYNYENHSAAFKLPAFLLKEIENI
molecule,measurement,setting,value
"NCCCC[C@H](NC(=O)[C@@H](N)CCCCN)C(=O)Nc1ccc2ccccc2c1 [Compound 7, [(2S)-6-azaniumyl-1-[[(2S)-6-azaniumyl-1-(naphthalen-2-ylamino)-1-oxohexan-2-yl]amino]-1-oxohexan-2-yl]azanium]",% Inhibition (at 100 μM),PfSpdS [1]; [7],No Inhibition
same,% Inhibition (at 100 μM),"PfSpdS [1]; 100 μM compound, PfSpdS activity inhibited compared to untreated enzyme, mean ± SEM, listed as compound 7, 100 µM",showed no inhibition
"NCCCNC1CCCCC1 [Compound 9, N-(3-aminopropyl)-cyclohexylamine]",inhibition of mammalian spermine synthase,[2],inhibitor
same,inhibition of mammalian spermine synthase,[2]; listed as compound 9,potent inhibitor
same,IC50,PfSpdS [1],7.4 ± 2.4 µM
same,Ki,PfSpdS [1],2.8 µM
same,fold difference in IC50 between compound 8 and compound 9,PfSpdS [1],100 fold
same,type of inhibition,"PfSpdS [1]; between compound and putrescine, preliminary kinetic experiments",mixed-type competitive inhibition
same,inhibition at 100 µM,PfSpdS [1],88.3 ± 1.2%
same,pseudo-substrate for PfSpdS,PfSpdS [1],no evidence was found
same,inhibition of mammalian SpdS,mammalian SpdS [3]; ref Shirahata et al. [22],does not inhibit
same,inhibition of mammalian SpdS,"mammalian SpdS [3]; ref Shirahata et al. [22], listed as compound 9",did not inhibit and not
"CN1CCN(CCC(=O)NNC=C2C=CC(=O)C=C2O)CC1 [Compound 5, N’-[(2-hydroxy-4-oxocyclohexa-2,5-dien-1-ylidene)methyl]-3-(4-methylpiperazine-1,4-diium-1-yl)-propanehydrazide]",% Inhibition (at 100 μM),PfSpdS [1]; [7],No Inhibition
same,% Inhibition (at 100 μM),"PfSpdS [1]; 100 μM compound, PfSpdS activity inhibited compared to untreated enzyme, mean ± SEM, listed as compound 5, 100 µM",neither compound showed reduction in PfSpdS activity
"NCCCN1CCN(CCCN)CC1 [Compound 4, 3-[4-(3-azaniumylpropyl)piperazine-1,4-diium-1-yl]propylazanium]",% Inhibition (at 100 μM),PfSpdS [1]; [7],No Inhibition; also recorded: did not inhibit
"NCCCCCC(CCN)SCC1OC(n2cnc3c(N)ncnc32)C(O)C1O (stereo not shown) [AdoDATO, S-adenosyl-1,8-diamino-3-thio-octane]",IC50,PfSpdS [4]; ref Dufe et al. [20],8.5 µM
same,fold lower IC50 for mammalian SpdS compared to the P. falciparum enzyme,"mammalian SpdS [5]; ref [18],[20],[38]",170 fold
same,fold less efficient inhibitor of mammalian SpdS than adenosylspermidine,"mammalian SpdS [5]; ref [21],[38]",3-7 fold
same,IC50,mammalian SpdS [3]; [8],0.05 to 0.1 µM
"NCCCN[C@H]1CC[C@H](N)CC1 [Compound 8, N-(3-aminopropyl)-trans-cyclohexane-1,4-diamine]",IC50,PfSpdS [1],619 ± 144 µM
same,fold difference in IC50 between compound 8 and compound 9,PfSpdS [1],100 fold
same,inhibition at 100 µM,PfSpdS [1],12.7 ± 9.1%
same,pseudo-substrate for PfSpdS,PfSpdS [1],acts as a pseudo-substrate
"C[C@H]1CC[C@H](N)CC1 [4MCHA, trans-4-methylcyclohexylamine]",IC50,PfSpdS [4]; ref Haider et al. [18],1.4 ± 0.1 µM
same,inhibition at 100 µM,PfSpdS [1],95.3 ± 0.4%
same,IC50,mammalian SpdS [3]; [8],1.7 µM
"N[C@H]1CC[C@H](N)CC1 [trans-1,4-diaminocyclohexane]",pseudo-substrate for mammalian SpdS,mammalian SpdS [3]; ref [22],~ 12%
"CN1CCC(N)CC1 [Compound 2, trans-4-amino-1-methylpiperidine]",inhibition at 100 µM,"PfSpdS [1]; 100 μM compound, PfSpdS activity inhibited compared to untreated enzyme, mean ± SEM",6.9 ± 5.8%
"CN(C[C@H](O)CN)C[C@H](O)CN1CCCCC1 [Compound 6, [(2R)-3-azaniumyl-2-hydroxypropyl]-[(2S)-2-hydroxy-3-piperidin-1-ium-1-ylpropyl]-methylazanium]",% Inhibition (at 100 μM),PfSpdS [1]; [7],No Inhibition
same,% Inhibition (at 100 μM),"PfSpdS [1]; 100 μM compound, PfSpdS activity inhibited compared to untreated enzyme, mean ± SEM, listed as compound 6, 100 µM",neither compound showed reduction in PfSpdS activity
"C=CCCCN [APE, 5-amino-1-pentene]",IC50,PfSpdS [4]; ref Haider et al. [18],6.5 ± 2.1 µM
same,IC50,mammalian SpdS [3]; ref Goda et al. [39],1.7 µM
"CC1CCN(CCCN)CC1 [Compound 1, 1-(3-ammoniopropyl)-4-methylpiperidin-1-ium]",inhibition at 100 µM,PfSpdS [1],17 ± 9.4%
NC1CCCCC1 [Cyclohexylamine],IC50,PfSpdS [4]; ref Haider et al. [18],19.7 ± 3.1 µM
same,IC50,mammalian SpdS [3]; ref Shirahata et al. [22],8.1 µM
5′-methylthioadenosine [MTA],IC50,PfSpdS [4]; ref Haider et al. [18],159 ± 27 µM
NCCCC[C@H](NC(=O)[C@@H](N)Cc1ccc(O)cc1)C(N)=O [Compound 3] (H-Tyr-Lys-NH2),% Inhibition (at 100 μM),PfSpdS [1]; [7],No Inhibition; also recorded: did not inhibit
"C[S+](CCCN)C[C@H]1O[C@@H](n2cnc3c(N)ncnc32)[C@H](O)[C@@H]1O (stereo partly shown) [dcAdoMet, decarboxylated S-adenosylmethionine]",Km,"PfSpdS [4]; P. falciparum enzyme, ref [18],[20],[38], read-out: Km value of the enzyme for dcAdoMet",35 µM
same,Km,"mammalian SpdS [3]; mammalian enzyme, ref [18],[20],[38], read-out: Km value of the enzyme for dcAdoMet",7 to 25 µM
"Plasmodium falciparum spermidine synthase lacking 39 amino acids at the N-terminus (enzyme, UniProt Q8II73 40-321, looked up, Plasmodium falciparum spermidine synthase (EC 2.5.1.16), protein lacking 39 amino acids at the N-terminus, cloned into the p15-TEV-LIC vector, from SGC Toronto; Crystallised with compound 8 and MTA; Three molecules in the asymmetric unit; subunits B and C form the homodimer; also called PfSpdS; 39 amino acid N-terminal truncated PfSpdS protein; source: expression and isolation according to Dufe …) SKKWFSEFSIMWPGQAFSLKIKKILYETKSKYQNVLVFESTTYGKVLVLDGVIQLTEKDEFAYHEMMTHVPMTVSKEPKNVLVVGGGDGGIIRELCKYKSVENIDICEIDETVIEVSKIYFKNISCGYEDKRVNVFIEDASKFLENVTNTYDVIIVDSSDPIGPAETLFNQNFYEKIYNALKPNGYCVAQCESLWIHVGTIKNMIGYAKKLFKKVEYANISIPTYPCGCIGILCCSKTDTGLTKPNKKLESKEFADLKYYNYENHSAAFKLPAFLLKEIENI",binding result,[6],binds

# — article PMC4342090, “A novel inhibitor of Plasmodium falciparum spermidine synthase: a twist in the tail” (Malaria Journal, 2015)
